Measurements taken from patent US20220117949A1, “LTA4H INHIBITORS FOR THE TREATMENT OF HIDRADENITIS SUPPURATIVA” (NOVARTIS AG, priority 2019, published 2022).

Key:
[1] = system: LTB4 biosynthesis in lesional skin biopsies of HS patients; assay: LTB4 biosynthesis in ionophore-stimulated skin biopsies of HS patients (LC-MS/MS); type: cell-based, human; conditions: 5 uM inhibitor 2 h, then 2 h 10 ug/mL ionophore
Protocol: Frozen human skin biopsies from healthy skin or discard HS lesions (on average 500 mg) were pulverized using mechanical force (Covaris) and homogenized in 4 mL of methanol containing deuterium labelled internal standards (ISTDs) using a bead-beating device (2×20 sec cycles of 5000 rpm, Precellys) maintained at low temperature. Then, samples were kept at −20° C./45 min to allow for protein precipitation and centrifuged at 13000 rpm for 10 min at 4° C. The supernatants were then evaporated (Genevac) until complete dryness and reconstituted in 70 μL of methanol:water (50%/50%; v/v) followed by injection in the LC-MS/MS system. Calibration curves were freshly prepared by serial dilution of pure standards in methanol:water (50%/50%, v/v) containing ISTDs and quantitation was done by comparing metabolite to ISTD peak area ratios in samples to that of calibrators.
Two analytical platforms were employed for data acquision depending on instrument availability: 1) Waters H class UPLC system coupled to a Waters XevoTQS triple quadrupole mass (QQQ) spectrometer and 2) a Dionex Ultimate 3000RS UPLC coupled to a Sciex6500+ QQQ. Separation of lipids was achieved using reverse-phase columns ACQUITY UPLC BEH C18 1.7 μm, 2.1×50 mm and CORTECS UPLC C18 1.6 μm, 2.1×50 mm heated at 40° C., respectively. The flow rate was set to 0.180 mL/min and the mobile phase consisted of water-acetic acid (99.99/0.01; v/v) (A) and methanol-acetonitrile-acetic acid (B) (50/50/0.01; v/v/v). The eluent gradient was maintained at 45% of B for 2 min, follow by 45%-65% of B during 2-16 min, from 65%-100% during 16-19 min and 100% of B from 19-22 min. From 23-30 min the column was re-equilibrated with initial conditions. Ionization was performed using an ESI source operated in negative ion mode. Fragmentation was tuned for each compound individually.
. Skin biopsies were then harvested, lipids extracted and analyzed for generation of LTB4 by LC-MS/MS as described above. Stimulated skin biopsies of HS lesions generated a large amount of the lipid mediator LTB4. […]. (FIGS. 10 and 11)
Lesional skin biopsies of HS patients were left untreated or fully stimulated with ionophore to induce LTB4 biosynthesis in the presence or absence of a LTA4H inhibitor
LTB4 quantities are given in fmol/mg tissue. Shown are representative results obtained with one donor per compound out of several tested.

clinical = conditions: for mean concentration in blister fluid: pre-dose on Day 9
Description: In parts 1 and 2 of the clinical study (SAD and MAD), skin blisters were induced on the arm of subjects in selected cohorts.
(§1) Blister fluid samples were collected at Day 1 pre-dose and Day 2 pre-dose in SAD cohort 4 as well as Day 1 pre-dose and Day 9 predose in MAD cohort 2-5.

[2] = First in human trial Part 2 (MAD): plasma pharmacokinetics
Protocol: (§2) The study consisted of a part 1, single ascending dose (SAD) and a part 2 multiple ascending dose (MAD).
(§3) Cohort 1: multiple once daily (qd) oral dose of 5 mg or matching placebo Cohort 2: multiple once daily (qd) oral dose of 15 mg or matching placebo Cohort 3: multiple oral daily dose of 20 mg or matching placebo administered twice daily (bid) Cohort 4: multiple oral daily dose of 40 mg or matching placebo administered twice daily (bid) Cohort 5: multiple oral daily dose of 80 mg or matching placebo administered twice daily (bid) Part 2 Multiple Ascending Dose Design (qd)—Overview of the Study Part 2 Multiple Ascending Dose Design (Bid)—Overview of the Study

[3] = First in human trial (SAD/MAD): safety and tolerability in healthy subjects
Protocol: as §2
(§4) Part 1 was a randomized, subject-blinded and Investigator-partial-blinded, placebo-controlled, single ascending oral dose study.
as §3

[4] = system: LTB4 in human skin blister fluids; assay: LTB4 in cantharidin induced skin blister fluid (FIH); type: in vivo; conditions: 40 mg daily dose (20 mg BID)
Protocol: In parts 1 and 2 of the clinical study (SAD and MAD), skin blisters were induced on the arm of subjects in selected cohorts. For this 10 mm diameter filter paper discs humected with a solution of cantharidin (such as cantharone) were applied on the arm of the subject, inducing an epidermal blister, and the blister fluid was collected approximately 24 hours (+/−1 hr) after the application.
as §1
Blister fluid samples were received frozen on dry ice and stored at −70° C. or below until analysis. On the day of analysis, samples were taken out of the freezer and immediately extracted after Thawing.
90 μL of blister fluid (sample or QC sample) was enriched with 5 μL of internal standard solution IS-L-2 (deuterated Leukotrienes and lipoxin at 50 ng/mL) and vortexed in a micro centrifuge tube. 90 μL of methanol with 0.1% formic acid was added. This was followed by 5 minutes vortex mixing and 10 minutes sonication on ice. The samples were incubated at −20° C. in a freezer for 40 minutes. This was followed by centrifugation at 16,000 rpm (27,500×g) at 4° C. for 20 minutes. 160 μL of the supernatant was transferred onto Millipore 5 kDa MWCO filters. MWCO filters have previously been cleaned by centrifuging 500 μL methanol/water 1/1 thru the filters. […]

[5] = First in human trial Part 1 (SAD): plasma pharmacokinetics
Description: as §2, §4

[6] = system: Leukotriene B4 (LTB4) in blood; assay: Leukotriene B4 (LTB4) in human plasma of ex vivo stimulated whole blood (FIH PD biomarker, LC-MS/MS)
Protocol: Therefore, LTB4 concentrations were determined in plasma of ex-vivo stimulated whole blood by a LC-MS/MS method.
Ex-vivo stimulation was performed at the clinical site according to the following procedure: Whole blood (500 μL) were stimulated for 30 min using Calcium Ionophore A23187.
Human plasma was processed with organic precipitation followed by separation by reverse phase high performance liquid chromatography with tandem mass spectrometric detection.
AB Sciex QTrap 5500 MS/MS Turbo Spray Ion Drive negative ion mode.
Sample from each subject and time point was prepared and analyzed in three aliquots. Aliquot one and two contained plasma from ex-vivo stimulated whole blood, while aliquot three as negative control contained plasma from non-stimulated whole blood.
LTB4 concentration data were calculated as mean of concentration of aliquot one and two. Concentration of aliquot three was not be included in the calculation. The change from baseline and percent inhibition (percent of baseline) for each biomarker was calculated. Baseline was the mean of the Baseline and Day 1, −1 h measurements.

[7] = 5 mg qd to 80 mg bid (16-fold per dosing interval)

## N[C@@H](CC(=O)O)Cn1nnc(-c2ccc(Oc3ccc(Cl)cc3)cc2)n1 [compound of embodiment 3D, (S)-3-amino-4-(5-(4-(4-chlorophenoxy)-phenyl)-2H-tetrazol-2-yl)butanoic acid]
[1]
  LTB4 generation by stimulated skin biopsies of HS lesions: almost no LTB4
[1]; listed as Compound of embodiment 3D
  LTB4 generation by stimulated skin biopsies of HS lesions: suppresses

## N[C@@H](CC(=O)O)Cn1nnc(-c2ccc(Oc3ncc(Cl)cc3F)cc2)n1 [compound of example 1, (S)-3-amino-4-(5-(4-((5-chloro-3-fluoropyridin-2-yl)oxy)phenyl)-2H-tetrazol-2-yl)butanoic acid]
[1]
  LTB4 generation by stimulated skin biopsies of HS lesions: almost no LTB4
[1]; listed as Compound of Example 1
  LTB4 generation by stimulated skin biopsies of HS lesions: suppresses
clinical; Part 2, 15 mg qd
  mean concentration in blister fluid: 4.62 ng/mL
clinical; Part 2, 80 mg bid
  mean concentration in blister fluid: 233 ng/mL
clinical; human, in vivo, 30 mg
  Kp at 24 h: 0.14
  concentration at 24 h: 4.67 ng/mL
[2]; [7]
  AUC on Day 12 (AUC0-12 h,ss bid; AUC0-24 h,ss qd) increase with dose: 20.9 fold
  Cmax on Day 12 increase with dose: 17.9 fold
[2]; BID oral dosing, fed state
  time to reach steady state exposure: 3 to 4 days
[2]; MAD
  increase in dose over which AUCtau can be considered dose proportional: ≤ 6.29 fold
  increase in dose over which Cmax,ss can be considered dose proportional: up to 2.12 fold
[2]; all higher doses (above 5 mg qd)
  accumulation to steady state: ≤ 1.4 fold
[2]; day 1 of the bid regimen
  mean Racc, day 1: 1.09-1.29
[2]; lowest dose of 5 mg qd
  mean accumulation to steady state: 2.1 fold
[2]; morning pre-dose concentrations, MAD
  time at which steady state is achieved: ~3 days
[2]; steady state, 5 mg qd to 40 mg bid
  dose proportionality criteria for AUCtau: met
[3]; SAD and MAD, healthy subjects
  findings in physical exam, vital signs or ECGs related to compound: No significant findings
[3]; SAD up to 200 mg total daily dose, MAD up to 80 mg BID for 12 days
  maximal tolerated dose: no maximal tolerated dose was established
[3]; SAD up to 2 x 100 mg, MAD up to 80 mg BID for 12 days, healthy subjects
  adverse events leading to study discontinuation: No adverse events led to study discontinuation
[3]; doses up to 80 mg bid (160 mg daily dose) over 12 days, healthy subjects
  tolerability: well tolerated
[3]; one SAD 5 mg, two MAD 80 mg BID, asymptomatic, transient
  treated subjects with increases in lipase: Three
[3]; the three subjects with lipase elevations, mild
  amylase increase accompanying lipase increase: ≤ 1.5 ULN
[4]
  suppression of LTB4 in human skin blister fluids: 90%
[5]; 5 mg to 2 times 100 mg
  dose proportionality of AUClast over the whole dose range: demonstrated
[5]; 40-fold increase in daily dose (5 mg to 100 mg bid)
  AUC0-24 h increase with dose: 75 fold
[5]; SAD
  increase in dose over which AUC0-24 h can be considered dose proportional: ≤ 2.57 fold
  increase in dose over which Cmax can be considered dose proportional: up to 4.50 fold
[5]; dose increase from 5 to 100 mg (20-fold)
  Cmax increase with dose: 21.7 fold
[5]; human, in vivo, po
  Tmax: 1 to 1.5 h
  half-life: 245 to 513 h
[6]; 40 mg daily dose (20 mg BID)
  suppression of LTB4 in blood at steady state: nearly complete suppression
[6]; SAD 5 mg, at 24 hours
  blood cell stimulated LTB4 release, reduction from baseline: 25-50%
